Measurements as given in PubChem BioAssay AID179 (DTP/NCI, 2004).
The source made the active and inactive calls.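 How the source made its calls: active means compounds giving half or more protection of infected cells from virus-caused growth loss, again on retest; inactive means the rest.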

System: CEM cells HIV-1 protection, formazan growth assay
Test: NCI AIDS Antiviral Assay
Details: for IC50: measured here: growth of uninfected CEM cells
Summary of the method: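 Protection of CEM cells against HIV-1 measured as cell growth via soluble formazan read-out, with five concentrations tested on both infected and uninfected cells; failure to protect may reflect toxicity.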

| SMILES | EC50 [µM] | IC50 [µM] | outcome |
| --- | --- | --- | --- |
| C=CCN(c1cc(OC)c2[nH]cc(C)c2c1[N+](=O)[O-])S(C)(=O)=O | 97.7 | > 100 | – |
| CCCCc1ccc(Nc2nc3c(ncn3C3OC(COC(C)=O)C(OC(C)=O)C3OC(C)=O)c(=O)[nH]2)cc1 (stereo not drawn) | > 200 | 11.7 | – |
| CC1=C(C(=O)Nc2ccccc2C)C(c2ccccc2)C(C(=O)Nc2ccccc2C)=C(C)N1 | > 11.5 | > 11.5 | – |
| CN(C)c1ccc(C(=S)c2ccc(N(C)C)cc2)cc1 | > 200 | 0.741 | – |
| CN(/N=C/c1ccnc2ccccc12)c1c([N+](=O)[O-])cc([N+](=O)[O-])cc1[N+](=O)[O-] | > 47.9 | 8.71 | – |
| O=S(=O)(O)CC(O)CN(CCO)CCO (stereo not drawn) | > 200 | > 200 | – |
| COC(=O)C1(Cc2ccc3c(c2)CCC3)Cc2cc3c(cc2C1)CCC3 | > 200 | > 200 | – |
| Cc1ccc2nc(NC(=O)/C(Cc3nc4ccc(Cl)cc4[nH]c3=O)=N\NC(C)(C)C)sc2c1 | > 74.1 | > 74.1 | – |
| COc1ccc(C2N(c3ccc(F)cc3)C(=O)N3C(c4ccc(OC)cc4)N(c4ccc(F)cc4)C(=O)N23)cc1 (stereo not drawn) | > 200 | > 200 | – |
| COc1cc(N)c2c(c1)SC(C)C(=O)N2 (stereo not drawn) | > 200 | 186 | – |
| CCOC(=O)CSc1ccnc(=O)[nH]1 | > 851 | > 851 | – |
| O=C(NCCCN(CCCCN(CCCNC(=O)C(F)(F)F)CCCc1ccccc1)CCCc1ccccc1)C(F)(F)F | > 200 | 9.77 | – |
| CC(NC1=NCCO1)c1ccco1 (stereo not drawn) | > 200 | > 200 | – |
| O=C1c2ccccc2C(=O)c2sc(Nc3ccc([N+](=O)[O-])cc3)nc21 | > 10.7 | > 10.7 | – |
| Sc1ccc2ccccc2c1CN1CCOCC1 | > 87.1 | 32.4 | – |
| Cc1cc(C2=CSC3=NCCN23)ccc1Cl | > 200 | 151 | – |
| CCOC(=O)C(Cl)(NC(=O)NC(Cl)(C(=O)OCC)C(F)(F)F)C(F)(F)F (stereo not drawn) | > 200 | > 200 | – |
| CC(C)(C)[Si](C)(C)OCC1OC(n2ccc(=O)[nH]c2=O)C(O[Si](C)(C)C(C)(C)C)C1CC#N (stereo not drawn) | > 200 | 11.7 | inactive |
| O=C(/C=C/c1ccc(OCc2ccccc2)c(OCc2ccccc2)c1)OCc1ccccc1 | > 200 | > 200 | – |
| COC(=O)NC(Nc1ccc(C)cc1)(C(F)(F)F)C(F)(F)F | – | – | inactive |
| Oc1c(CN2CCOCC2)ccc2ccccc12 | > 200 | 191 | – |
| CCOC(=O)C(C)c1nc2cc(F)c(N3CCOCC3)cc2[nH]c1=O (stereo not drawn) | > 200 | 95.5 | – |

| SMILES | EC50 [µM] | IC50 [µM] | outcome |
| --- | --- | --- | --- |
| Nc1cc(=O)[nH][nH]1 | > 200 | > 200 | – |
| O=C(O)[C@@H]1[C@H](OCc2ccccc2)[C@H](OCc2ccccc2)CN1C(=O)OCc1ccccc1 | > 200 | 115 | – |
| CC(=O)c1c2c(cc3c1CC1(C3)Cc3ccc4c(c3C1=O)CCC4)CCC2 (stereo not drawn) | > 200 | 40.7 | – |
| Cc1cc2cc(O)c3c(=O)c4c(O)cccc4c(=O)c3c2c(=O)c1=O | > 21.4 | 12 | – |
| C=C1OC2OC(C)C(NC(=O)OCC(Cl)(Cl)Cl)C(OC(C)=O)C2O1 (stereo not drawn) | > 234 | > 234 | – |
| CCOC(=O)C1(C)CCCc2sc(N)c(C#N)c21 (stereo not drawn) | > 200 | > 200 | – |
| NC(=O)c1ccccc1NC(=O)C(=O)C(c1cnc2ccc([N+](=O)[O-])cc2n1)[N+](=O)[O-] (stereo not drawn) | > 61.7 | > 61.7 | – |
| Cc1c(Cc2ccccc2)n(COCCCO)c(=O)[nH]c1=O | 138 | > 200 | – |
| O=C1NC(=O)C2C(=O)NC(=O)C1C2c1c(Cl)cccc1Cl (stereo not drawn) | > 759 | 501 | – |
| COc1ccc(-c2cc(O)c3nc4ccccc4n3c2)cc1 | > 200 | > 200 | – |
| Cc1cc(S(=O)(=O)N2CCNNC2=O)c(S)cc1Cl | 27.5 | 50.1 | – |
| O=C1c2ccccc2C(=O)c2c(/C=C\N3CCCCC3)ccnc21 | > 8.51 | > 8.51 | – |
| CC(=O)OC[C@@H]1[C@H]2CC(=O)O[C@H]2C[C@H]1OC(C)=O | – | – | inactive |
| O=C1NNC(=O)c2ccccc2SSc2ccccc2C(=O)NNC(=O)c2ccccc2SSc2ccccc21 | 5.01 | 25.1 | – |
| Cc1cc2nc(-c3ccccn3)c(-c3ccccn3)nc2cc1C | > 200 | > 200 | – |
| CCCCCCCCCCCCCCC(C(=O)O)C(=O)O | > 832 | 398 | – |
| CC(=O)ONC(C(=O)C(C)(C)C)C(=O)C(C)(C)C | > 200 | > 200 | – |
| O=C1/C(=C/c2ccc(O)cc2)Oc2cc(O)ccc21 | > 204 | 66.1 | – |
| COc1nnc(C)c2[nH]c(=S)[nH]c12 | > 457 | > 457 | – |
| CC1CCC2CC(=O)NC(=O)CC12 (stereo not drawn) | > 457 | > 457 | – |
| Cn1cc2ccccc2c1-c1nc(N)nc(F)n1 | > 107 | 64.6 | – |
| C=[N+](CNC(=O)CNC(=O)C(Cc1ccc([N+](=O)[O-])cc1)NC(=O)OC(C)(C)C)C(=O)CNC(=O)C(Cc1ccc([N+](=O)[O-])cc1)NC(=O)OC(C)(C)C (stereo not drawn) | > 200 | 89.1 | – |

| SMILES | EC50 [µM] | IC50 [µM] | outcome |
| --- | --- | --- | --- |
| N#Cc1cccc(C2C(=O)c3ccc(C(=O)c4ccc5c(c4)C(=O)N(c4ccc(Oc6ccc(N7C(=O)c8ccc(C(=O)c9ccc%10c(c9)C(=O)N(c9cccc(C#N)c9)C%10=O)cc8C7=O)cc6)cc4)C5=O)cc3C2=O)c1 (stereo not drawn) | > 3.47 | > 3.47 | – |
| CCCCCCCCCCCCCCCCOP(=O)(O)Oc1ccc(/C=C\c2ccc(OP(=O)(O)OCCCCCCCCCCCCCCCC)cc2)cc1 | – | – | inactive |
| COC12C[C@H]3CCC([C@H](C)c4ccc5c(c41)CC1[C@H]5C[C@@H](O)C4C[C@@H](O)CC[C@@]41C)N2C3 (stereo partly drawn) | > 40.7 | > 40.7 | – |
| CCNC(=O)COc1cc2c(O)c3c(O)c(C)c4c(c13)C(=O)C(C)(O/C=C/C(OC)C(C)C(OC(C)=O)C(C)C(O)C(C)C(O)C(C)/C=C/C=C(\C)C(=O)N2)O4 (stereo not drawn) | > 200 | 83.2 | – |
| N#C/C(=C\c1cc(Br)c(O)c(Br)c1)c1ccccn1 | > 200 | 31.6 | – |
| O=c1c(SCc2ccc(Br)cc2)c(SCc2ccc(Br)cc2)cnn1-c1ccccc1 | > 12.6 | 6.46 | – |
| O=C(/C=C/c1ccccc1)Oc1cccc(O)c1 | > 200 | 5.01 | – |
| COc1cc2c(cc1OC)C1C[C@]3(CCN1CC2)C(=O)N(c1ccccc1)C(=O)N3C(C)=O (stereo partly drawn) | > 10 | > 10 | – |
| COc1cc(OC)c2nc(C)c3c(c2c1)NCC3 | > 200 | 3.98 | – |
| O=C(Cn1ccnc1[N+](=O)[O-])NCCO | – | – | inactive |
| NC(CSCc1ccccc1)C(=O)O (stereo not drawn) | > 224 | > 224 | – |
| COc1ccc(C(=C2C(=O)N(c3ccccc3)C(=O)C2=C(C)C)c2ccc(OC)cc2)cc1 | > 200 | 3.39 | – |
| CCOC(=O)/C(=C\c1cccc(F)c1)C(C)=O | > 398 | 182 | – |
| O=C(N=Nc1ccc(Br)cc1)NNc1ccc(Br)cc1 | > 200 | 12.9 | – |
| CCOC(=O)C(CC#N)(NC(C)=O)C(=O)OCC | > 200 | > 200 | – |
| O=c1c2ccccc2nc(-c2ccccc2)n1NC(=S)Nc1ccccc1 | > 135 | 112 | – |
| Cc1ccc2c(c1)-c1c3c(nn1-c1ccccc1)-c1ccccc1SC3O2 (stereo not drawn) | > 3.89 | > 3.89 | – |
| COc1cc2c3c(c1)SC(C)C(=O)N3CCN2 (stereo not drawn) | > 200 | 105 | – |
| O=c1cc(N=Nc2ccc(O)cc2)[nH]c(=O)[nH]1 | > 200 | 11.5 | – |
| CNc1ccc(S(=O)Nc2ccc(OC)cc2)cc1 (stereo not drawn) | > 200 | 17.8 | – |
| CCOC(=O)C1S(=O)(=O)OCCOS1(=O)=O | > 5750 | 3470 | – |
| CC(CNC(=O)CCC(N)C(=O)O)C(=O)O (stereo not drawn) | – | – | inactive |

| SMILES | EC50 [µM] | IC50 [µM] | outcome |
| --- | --- | --- | --- |
| O=S(=O)(O)ON=C1c2ccccc2-c2ccccc21 | > 200 | 195 | – |
| O=C(CCC(=O)Nc1ccc(Cl)c(Cl)c1)CC(=O)c1ccc(F)cc1 | > 67.6 | > 67.6 | – |
| COC(=O)/C=C\C(C#N)(C#N)N=Cc1cccc(OC)c1 | > 20 | 1.26 | – |
| O=C1c2cnccc2Cc2cccc3c2N1c1ccccc1S3 | > 22.9 | > 22.9 | – |
| COc1cc2c(c([N+](=O)[O-])c1)NC(=O)C(C)S2 (stereo not drawn) | > 200 | 49 | – |
| CN(C)CCSc1nnc(-c2cccs2)c2ccccc12 | > 794 | 40.7 | – |
| CCCCCCCCCCCC(=O)OCC1OC(n2cc(F)c(=O)[nH]c2=O)C(N)C(OC(=O)CCCCCCCCCCC)C1O (stereo not drawn) | > 3.02 | > 3.02 | – |
| CC(CCC/C=C/CCCN(C)C(=N)N)CC(C)C1OC(=O)C(C)C(O)/C=C/C(C)C(O)C(C)C(O)C(C)C(O)CCCC(O)CC2(O)OC(CC(OC(=O)CC(=O)O)CC(O)CC(O)C(C)C(O)/C=C/C=C/C1C)CC(O)C2O (stereo not drawn) | – | – | inactive |
| Nc1ccc2n[se]nc2c1 | – | – | inactive |
| Oc1ccc(-c2ccc(O)cc2O)c(O)c1 | > 200 | 132 | – |
| CC(=O)Nc1ccc(CNc2cc(=O)[nH]c(=O)[nH]2)cc1 | > 200 | > 200 | – |
| COc1ccc(OC)c(-c2csc(=O)s2)c1 | > 269 | > 269 | – |
| N[C@H]1C2C3CC4C5CC(C42)C1(c1ccccc1)C53 (stereo partly drawn) | > 661 | 53.7 | – |
| COC1/C=C/OC2(C)Oc3c(C)c(O)c4c(O)c(c(/C=N/n5c(=O)[nH]c6ccccc6c5=O)c(O)c4c3C2=O)NC(=O)/C(C)=C\C=C\C(C)C(O)C(C)C(O)C(C)C(OC(C)=O)C1C (stereo not drawn) | > 200 | 29.5 | – |
| C(/C=C/Nc1ccc(-c2ccccc2)cc1)=Nc1ccc(-c2ccccc2)cc1 | > 200 | > 200 | – |
| CC1=CSC(O)(c2ccc(Cl)cc2)c2noc(=O)n21 (stereo not drawn) | > 200 | 112 | – |
| O=[N+]([O-])c1ccc(OP(=O)(O)OCC2OC(CP(=O)(O)O)C(O)C2O)cc1 (stereo not drawn) | > 200 | > 200 | – |
| CC(C)/C(Cl)=N\OC(=O)NNc1ccccc1 | > 20 | 5.75 | – |
| C(=C\c1ccc2ccccc2c1Nc1ccccc1)/c1ccccc1 | – | – | inactive |
